Results published in ChEMBL document CHEMBL4665629, “An optimised series of substituted N-phenylpyrrolamides as DNA gyrase B inhibitors” (Eur J Med Chem, 2019).
Converted amounts (≈) assume the structure as drawn.

Assays:
Klebsiella aerogenes = assay: Antibacterial activity against Enterobacter aerogenes ATCC 13408 assessed as bacterial growth inhibition at 50 uM incubated for 24 hrs by CLSI protocol based broth microdilution assay relative to control; type: functional
[1] = target: DNA gyrase (Staphylococcus aureus) (UniProt P0A0K8+P20831); assay: Inhibition of Staphylococcus aureus DNA gyrase assessed as residual activity at 1 uM using biotinylated oligonucleotide as substrate incubated for 30 mins in presence of ATP by fluorescence-based microplate reader assay relative to control; type: protein-complex assay
Chain of DNA gyrase (Staphylococcus aureus) (P0A0K8 2-644 limits assumed): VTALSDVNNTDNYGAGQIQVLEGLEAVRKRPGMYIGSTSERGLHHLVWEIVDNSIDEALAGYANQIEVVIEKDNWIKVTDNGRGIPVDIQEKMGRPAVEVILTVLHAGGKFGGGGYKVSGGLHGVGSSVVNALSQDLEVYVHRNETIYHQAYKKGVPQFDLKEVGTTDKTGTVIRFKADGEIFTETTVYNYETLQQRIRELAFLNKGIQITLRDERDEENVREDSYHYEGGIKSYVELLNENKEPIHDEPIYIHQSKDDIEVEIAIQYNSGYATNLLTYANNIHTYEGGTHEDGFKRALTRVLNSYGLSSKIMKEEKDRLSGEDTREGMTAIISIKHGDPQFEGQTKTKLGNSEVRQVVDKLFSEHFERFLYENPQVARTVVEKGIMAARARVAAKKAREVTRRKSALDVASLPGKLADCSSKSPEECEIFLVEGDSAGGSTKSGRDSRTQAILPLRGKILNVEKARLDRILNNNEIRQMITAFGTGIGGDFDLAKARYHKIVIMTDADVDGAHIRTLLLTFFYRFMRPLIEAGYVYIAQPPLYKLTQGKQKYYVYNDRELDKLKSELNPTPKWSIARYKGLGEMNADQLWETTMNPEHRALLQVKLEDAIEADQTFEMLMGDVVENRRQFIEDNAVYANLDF
Chain of DNA gyrase (Staphylococcus aureus) (P20831 whole entry partner): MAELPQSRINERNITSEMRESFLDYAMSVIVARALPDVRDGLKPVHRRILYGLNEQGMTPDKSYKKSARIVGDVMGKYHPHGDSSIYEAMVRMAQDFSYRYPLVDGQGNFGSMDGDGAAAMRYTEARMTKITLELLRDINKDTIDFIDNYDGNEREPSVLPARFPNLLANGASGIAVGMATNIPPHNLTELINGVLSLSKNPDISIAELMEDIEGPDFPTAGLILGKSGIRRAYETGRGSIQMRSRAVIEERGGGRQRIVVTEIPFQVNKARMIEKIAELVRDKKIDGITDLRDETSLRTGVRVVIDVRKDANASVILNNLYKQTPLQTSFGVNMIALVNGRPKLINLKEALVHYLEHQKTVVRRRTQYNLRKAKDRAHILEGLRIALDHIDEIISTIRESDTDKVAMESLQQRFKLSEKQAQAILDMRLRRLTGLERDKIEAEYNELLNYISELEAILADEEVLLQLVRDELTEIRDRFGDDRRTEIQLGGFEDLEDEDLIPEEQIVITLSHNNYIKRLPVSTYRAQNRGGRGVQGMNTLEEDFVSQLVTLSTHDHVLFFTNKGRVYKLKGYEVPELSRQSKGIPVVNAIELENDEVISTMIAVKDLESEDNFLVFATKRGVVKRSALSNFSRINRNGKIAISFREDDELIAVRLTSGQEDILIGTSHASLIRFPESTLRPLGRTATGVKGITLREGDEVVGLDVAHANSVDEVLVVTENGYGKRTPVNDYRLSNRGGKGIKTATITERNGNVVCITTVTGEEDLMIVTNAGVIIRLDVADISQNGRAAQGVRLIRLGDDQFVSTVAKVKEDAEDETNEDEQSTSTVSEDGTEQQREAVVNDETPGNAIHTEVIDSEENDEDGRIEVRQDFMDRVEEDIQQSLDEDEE

Staphylococcus aureus = assay: Antibacterial activity against Staphylococcus aureus ATCC 29213 assessed as bacterial growth inhibition at 50 uM incubated for 24 hrs by CLSI protocol based broth microdilution assay relative to control; type: functional
Escherichia coli [2] = assay: Antibacterial activity against efflux pump d effect ive Escherichia coli JW5503 harbouring tolC mutant assessed as bacterial growth inhibition at 50 uM incubated for 24 hrs by CLSI protocol based broth microdilution assay relative to control; type: functional
Enterococcus faecium [3] = assay: Antibacterial activity against Enterococcus faecium ATCC 35667 assessed as bacterial growth inhibition at 50 uM incubated for 24 hrs by CLSI protocol based broth microdilution assay relative to control; type: functional
[4] = target: Topoisomerase IV (Staphylococcus aureus) (UniProt P0C1U9+P0C1S7); assay: Inhibition of Staphylococcus aureus DNA topoisomerase 4 assessed as residual activity at 1 uM using biotinylated oligonucleotide as substrate incubated for 30 mins in presence of ATP by fluorescence-based microplate reader assay relative to control; type: protein-complex assay
Klebsiella pneumoniae = assay: Antibacterial activity against Klebsiella pneumoniae ATCC 700603 assessed as bacterial growth inhibition at 50 uM incubated for 24 hrs by CLSI protocol based broth microdilution assay relative to control; type: functional
Escherichia coli [5] = assay: Antibacterial activity against efflux pump d effect ive Escherichia coli JW5503 harbouring tolC mutant assessed as minimum inhibitory concentration required for >=90% inhibition of bacterial growth by CLSI protocol based broth microdilution assay; type: functional
DNA gyrase [6] = target: DNA gyrase (Escherichia coli, UniProt P0AES4+P0AES6); assay: Inhibition of Escherichia coli DNA gyrase using biotinylated oligonucleotide as substrate incubated for 30 mins in presence of ATP by fluorescence-based microplate reader assay; type: protein-complex assay
Escherichia coli [7] = assay: Antibacterial activity against outer membrane impaired Escherichia coli JD17464 harboring lpxC mutant assessed as bacterial growth inhibition at 50 uM incubated for 24 hrs by CLSI protocol based broth microdilution assay relative to control; type: functional
Acinetobacter baumannii = assay: Antibacterial activity against Acinetobacter baumannii ATCC 19606 assessed as bacterial growth inhibition at 50 uM incubated for 24 hrs by CLSI protocol based broth microdilution assay relative to control; type: functional; settings: ATCC 19606 = CIP 70.34 = JCM 6841
Escherichia coli [8] = assay: Antibacterial activity against Escherichia coli ATCC 25922 assessed as bacterial growth inhibition at 50 uM incubated for 24 hrs by CLSI protocol based broth microdilution assay relative to control; type: functional
Pseudomonas aeruginosa = assay: Antibacterial activity against Pseudomonas aeruginosa ATCC 27853 assessed as bacterial growth inhibition at 50 uM incubated for 24 hrs by CLSI protocol based broth microdilution assay relative to control; type: functional
[9] = Inhibition of Escherichia coli DNA topoisomerase 4 assessed as residual activity at 1 uM using biotinylated oligonucleotide as substrate incubated for 30 mins in presence of ATP by fluorescence-based microplate reader assay relative to control
[10] = Inhibition of Escherichia coli DNA topoisomerase 4 using biotinylated oligonucleotide as substrate incubated for 30 mins in presence of ATP by fluorescence-based microplate reader assay
[11] = Cytotoxicity against HUVEC assessed as reduction in cell proliferation at 50 uM after 72 hrs by MTS assay relative to control; type: cell-based; settings: human, HUVEC cells, read-out: Activity
Topoisomerase IV = Topoisomerase IV (Staphylococcus aureus, UniProt P0C1S7+P0C1U9); assay: Inhibition of Staphylococcus aureus DNA topoisomerase 4 using biotinylated oligonucleotide as substrate incubated for 30 mins in presence of ATP by fluorescence-based microplate reader assay; type: protein-complex assay
Chain of Topoisomerase IV (P0C1U9 whole entry): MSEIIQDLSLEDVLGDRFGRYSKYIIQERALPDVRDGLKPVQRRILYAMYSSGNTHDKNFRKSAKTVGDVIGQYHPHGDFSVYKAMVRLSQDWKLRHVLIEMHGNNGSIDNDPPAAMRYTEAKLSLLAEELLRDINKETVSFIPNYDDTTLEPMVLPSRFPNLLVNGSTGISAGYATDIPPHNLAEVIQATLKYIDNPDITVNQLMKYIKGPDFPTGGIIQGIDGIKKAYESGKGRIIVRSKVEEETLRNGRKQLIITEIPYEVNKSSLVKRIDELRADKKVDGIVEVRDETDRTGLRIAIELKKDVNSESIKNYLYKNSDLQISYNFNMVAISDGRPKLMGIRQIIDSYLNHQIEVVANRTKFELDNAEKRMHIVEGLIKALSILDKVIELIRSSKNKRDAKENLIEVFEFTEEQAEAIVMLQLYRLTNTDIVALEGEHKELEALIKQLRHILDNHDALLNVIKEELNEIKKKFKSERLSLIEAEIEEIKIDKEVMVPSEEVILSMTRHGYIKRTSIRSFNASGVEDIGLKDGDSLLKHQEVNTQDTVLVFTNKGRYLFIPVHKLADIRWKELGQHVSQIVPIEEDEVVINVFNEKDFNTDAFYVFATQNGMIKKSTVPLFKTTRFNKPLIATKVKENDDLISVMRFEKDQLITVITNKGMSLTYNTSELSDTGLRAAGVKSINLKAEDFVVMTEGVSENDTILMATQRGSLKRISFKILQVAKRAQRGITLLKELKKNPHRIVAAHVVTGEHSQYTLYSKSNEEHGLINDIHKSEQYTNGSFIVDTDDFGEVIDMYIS
Chain of Topoisomerase IV (P0C1S7 whole entry): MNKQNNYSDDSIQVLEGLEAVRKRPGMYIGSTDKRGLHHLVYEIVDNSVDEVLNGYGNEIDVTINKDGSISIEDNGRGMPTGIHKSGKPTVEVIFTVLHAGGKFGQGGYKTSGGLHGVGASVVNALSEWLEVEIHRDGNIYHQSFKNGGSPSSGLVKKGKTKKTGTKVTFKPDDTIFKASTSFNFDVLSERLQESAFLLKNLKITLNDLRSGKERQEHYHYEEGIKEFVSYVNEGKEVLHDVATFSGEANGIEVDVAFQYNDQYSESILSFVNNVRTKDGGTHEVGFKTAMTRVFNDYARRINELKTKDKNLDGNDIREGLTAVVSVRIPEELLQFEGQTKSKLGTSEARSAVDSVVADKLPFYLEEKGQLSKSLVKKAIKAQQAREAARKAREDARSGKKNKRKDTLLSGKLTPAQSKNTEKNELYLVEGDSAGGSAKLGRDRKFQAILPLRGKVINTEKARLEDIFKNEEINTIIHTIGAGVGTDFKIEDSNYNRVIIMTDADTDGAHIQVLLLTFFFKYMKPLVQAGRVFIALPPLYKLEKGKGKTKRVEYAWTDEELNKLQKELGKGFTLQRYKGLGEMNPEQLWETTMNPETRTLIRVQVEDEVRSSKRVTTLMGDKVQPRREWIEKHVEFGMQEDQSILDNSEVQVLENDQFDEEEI

DNA gyrase [12] = target: DNA gyrase (Staphylococcus aureus, UniProt P0A0K8+P20831); assay: Inhibition of Staphylococcus aureus DNA gyrase using biotinylated oligonucleotide as substrate incubated for 30 mins in presence of ATP by fluorescence-based microplate reader assay; type: protein-complex assay
Chain of DNA gyrase (Staphylococcus aureus, UniProt P0A0K8+P20831) (P0A0K8 whole entry): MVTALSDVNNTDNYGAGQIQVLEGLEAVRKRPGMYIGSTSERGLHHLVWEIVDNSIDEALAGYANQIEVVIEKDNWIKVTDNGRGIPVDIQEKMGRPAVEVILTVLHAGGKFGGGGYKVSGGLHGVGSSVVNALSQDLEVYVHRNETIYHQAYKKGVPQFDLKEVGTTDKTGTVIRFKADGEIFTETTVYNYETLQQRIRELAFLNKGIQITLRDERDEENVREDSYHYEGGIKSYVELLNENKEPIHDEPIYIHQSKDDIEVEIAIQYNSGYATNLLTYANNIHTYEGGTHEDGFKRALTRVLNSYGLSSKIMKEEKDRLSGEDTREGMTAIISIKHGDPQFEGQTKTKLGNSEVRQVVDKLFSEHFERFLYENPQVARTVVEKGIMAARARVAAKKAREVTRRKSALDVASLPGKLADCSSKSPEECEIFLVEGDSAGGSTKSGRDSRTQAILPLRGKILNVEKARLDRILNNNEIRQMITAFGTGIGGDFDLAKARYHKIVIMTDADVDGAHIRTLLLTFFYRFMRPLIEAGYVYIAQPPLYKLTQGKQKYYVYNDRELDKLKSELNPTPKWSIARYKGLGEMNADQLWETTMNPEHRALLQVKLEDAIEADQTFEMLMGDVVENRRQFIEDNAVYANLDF
Chain of DNA gyrase (Staphylococcus aureus, UniProt P0A0K8+P20831) (P20831 whole entry): as the sequence (P20831 whole entry partner) above

[13] = Cytotoxicity against human HepG2 cells assessed as reduction in cell proliferation at 50 uM after 72 hrs by MTS assay relative to control; type: cell-based; settings: read-out: Activity
Enterococcus faecium [14] = assay: Antibacterial activity against Enterococcus faecium ATCC 35667 assessed as minimum inhibitory concentration required for >=90% inhibition of bacterial growth by CLSI protocol based broth microdilution assay; type: functional
Enterococcus faecalis [15] = assay: Antibacterial activity against Enterococcus faecalis ATCC 29212 assessed as minimum inhibitory concentration required for >=90% inhibition of bacterial growth by CLSI protocol based broth microdilution assay; type: functional
Enterococcus faecalis [16] = assay: Antibacterial activity against Enterococcus faecalis ATCC 29212 assessed as bacterial growth inhibition at 50 uM incubated for 24 hrs by CLSI protocol based broth microdilution assay relative to control; type: functional

Structure (SMILES) | inhibition at 50 µM (Klebsiella aerogenes) [%] | inhibition at 50 µM (Staphylococcus aureus) [%] | inhibition at 50 µM (Escherichia coli [2]) [%] | inhibition at 50 µM (Enterococcus faecium [3]) [%] | inhibition at 50 µM (Klebsiella pneumoniae) [%] | MIC (Escherichia coli [5]) [µM] | IC50 (DNA gyrase [6]) [nM] | inhibition at 50 µM (Escherichia coli [7]) [%] | inhibition at 50 µM (Acinetobacter baumannii) [%] | inhibition at 50 µM (Escherichia coli [8]) [%] | inhibition at 50 µM (Pseudomonas aeruginosa) [%] | IC50 [10] [nM] | IC50 (Topoisomerase IV) [nM] | IC50 (DNA gyrase [12]) [nM] | also measured
COC(=O)[C@@H](C)NC(=O)c1ccc(NC(=O)c2[nH]c(C)c(Cl)c2Cl)c(OC2CCNCC2)c1 | -2 | 8 | 97 | 4 | -7 | 6.25 (≈ 3.11 µg/mL) | 48 | 21 | 17 | 8 | 12 |  |  |  | Activity [1]: 49%; Activity [4]: 94%; Activity [9]: 89%
Cc1[nH]c(C(=O)Nc2ccc(C(=O)NCC(=O)O)cc2O[C@H]2CCNC2)c(Cl)c1Cl | -11 | -6 | -1 | 14 | -3 |  | 31 | 18 | -1 | 11 | -28 | 16000 | 4300 | 290 | inhibition at 72 h, 50 µM [11]: 130%; inhibition at 72 h, 50 µM [13]: 46%
CC(=O)NC[C@H]1CN(c2ccc(N3CCOCC3)c(F)c2)C(=O)O1 [LINEZOLID] |  |  |  |  |  |  |  |  |  |  |  |  |  |  | MIC (Enterococcus faecium [14]): 11.9 µM (≈ 4 µg/mL)
Cc1[nH]c(C(=O)Nc2ccc(C(=O)NCC#N)cc2)c(Cl)c1Cl | 1 | 4 | 102 | -17 | 4 | 12.5 (≈ 4.39 µg/mL) | 410 | -8 | 0 | 0 | 30 |  |  |  | MIC (Enterococcus faecalis [15]): 25 µM (≈ 8.78 µg/mL); inhibition at 50 µM (Enterococcus faecalis [16]): 92%
COC(=O)[C@H](C)NC(=O)c1ccc(NC(=O)c2[nH]c(C)c(Cl)c2Cl)c(OC2CCNCC2)c1 | -4 | 27 | 99 | 7 | 0 | 6.25 (≈ 3.11 µg/mL) | 40 | 24 | 21 | 14 | -1 | 18000 | 3700 | 1600 | 
Cc1[nH]c(C(=O)Nc2ccc(C(=O)N[C@@H](C)C(=O)O)cc2OC2CCN(C(=O)OC(C)(C)C)CC2)c(Cl)c1Cl | -5 | -23 | 1 | 67 | -19 |  | 80 | 19 | 0 | 2 | 19 |  | 830 |  | Activity [1]: 26%; MIC (Enterococcus faecium [14]): > 25 µM; Activity [9]: 88%
Cc1[nH]c(C(=O)Nc2ccc(C(=O)N[C@@H](C)C(=O)O)cc2OC2CCNCC2)c(Cl)c1Cl | -2 | -11 | 9 | -10 | 5 |  | 9.9 | 12 | 2 | 7 | 9 | 9100 | 690 | 99 | 
